Results from ChEMBL document CHEMBL1201862, “PubChem BioAssay data set” (2004).
Values belong to the molecule of their own block, whether it stands above or below them. The source made the active and inactive calls.

Legend:
[1] = target: ATP-dependent translocase ABCB1 (Homo sapiens, UniProt P08183); assay: ABCB1 efflux pump inhibitor potency, dose response, Jurkat-DNR cells, JC-1, flow cytometry (AID 1689); format: functional
[2] = target: T1, Sentrin-specific protease 1 (Homo sapiens, UniProt Q9P0U3); assay: Dose response confirmation of small molecule inhibitors of the catalytic domain of the SUMO protease, SENP1 in a FRET assay.; format: functional; conditions: read-out: IC50_Mean
T1 sequence (Q9P0U3 whole entry, the tested form may be a part): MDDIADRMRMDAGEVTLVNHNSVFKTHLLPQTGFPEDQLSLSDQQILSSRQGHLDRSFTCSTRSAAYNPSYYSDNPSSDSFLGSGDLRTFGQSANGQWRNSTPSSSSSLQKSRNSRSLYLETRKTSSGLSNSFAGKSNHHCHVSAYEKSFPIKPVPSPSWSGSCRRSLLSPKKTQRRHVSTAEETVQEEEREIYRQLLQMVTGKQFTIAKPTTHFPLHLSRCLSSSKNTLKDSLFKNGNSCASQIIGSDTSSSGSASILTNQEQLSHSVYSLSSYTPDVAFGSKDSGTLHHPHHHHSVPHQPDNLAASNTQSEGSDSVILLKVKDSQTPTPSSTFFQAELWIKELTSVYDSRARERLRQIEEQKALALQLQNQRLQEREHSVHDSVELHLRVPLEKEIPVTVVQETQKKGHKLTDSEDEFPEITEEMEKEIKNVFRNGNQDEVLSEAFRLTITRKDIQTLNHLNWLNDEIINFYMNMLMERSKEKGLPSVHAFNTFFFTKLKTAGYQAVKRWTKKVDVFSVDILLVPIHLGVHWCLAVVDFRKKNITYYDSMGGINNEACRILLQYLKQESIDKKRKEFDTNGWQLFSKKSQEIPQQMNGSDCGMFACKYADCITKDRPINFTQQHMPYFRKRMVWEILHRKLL

[3] = target: T1, Sentrin-specific protease 1; assay: potency of human SENP1 inhibitors, dose response, biochemical, kinetic FRET (AID 651697); format: functional; conditions: read-out: IC50_Mean
[4] = target: ADP-ribosylation factor GTPase-activating protein 1 (Rattus norvegicus, UniProt Q62848); assay: Fluorescence polarization-based biochemical high throughput dose response screening assay to identify inhibitors of ADP-ribosylation factor GTPase activating protein 1 (ARFGAP1).; format: functional
Sequence of ADP-ribosylation factor GTPase-activating protein 1 (Q62848 whole entry, the tested form may be a part): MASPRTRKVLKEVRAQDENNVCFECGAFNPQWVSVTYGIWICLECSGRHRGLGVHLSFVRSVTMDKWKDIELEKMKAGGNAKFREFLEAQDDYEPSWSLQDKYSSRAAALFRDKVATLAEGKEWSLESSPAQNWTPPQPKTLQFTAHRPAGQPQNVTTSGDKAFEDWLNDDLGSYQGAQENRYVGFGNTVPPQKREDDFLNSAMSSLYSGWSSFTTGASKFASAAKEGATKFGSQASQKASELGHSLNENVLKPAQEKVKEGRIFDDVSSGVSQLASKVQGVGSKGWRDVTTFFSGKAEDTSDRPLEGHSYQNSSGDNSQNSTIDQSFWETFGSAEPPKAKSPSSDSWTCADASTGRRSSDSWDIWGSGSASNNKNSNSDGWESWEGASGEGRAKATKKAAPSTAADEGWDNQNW

[5] = target: T2, Carboxy-terminal domain RNA polymerase II polypeptide A small phosphatase 1 (Homo sapiens, UniProt Q9GZU7); assay: inhibitors of CTDSP1, concentration-response testing, biochemical assay, absorbance-based, actives from ultra-high-throughput screening (AID 540297); format: functional
T2 sequence (Q9GZU7 whole entry): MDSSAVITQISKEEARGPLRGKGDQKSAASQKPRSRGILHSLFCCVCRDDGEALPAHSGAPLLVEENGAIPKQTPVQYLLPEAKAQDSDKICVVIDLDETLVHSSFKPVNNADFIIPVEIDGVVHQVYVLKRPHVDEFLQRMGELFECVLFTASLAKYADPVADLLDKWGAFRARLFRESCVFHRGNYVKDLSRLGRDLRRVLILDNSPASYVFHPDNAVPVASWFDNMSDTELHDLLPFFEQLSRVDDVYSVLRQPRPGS

[6] = target: T3, Caspase-3 (Homo sapiens, UniProt P42574); assay: Dose-response confirmation of uHTS inhibitor hits of Sentrin-Specific Protease 8 in a Caspase-3 Fluorescence assay.; format: functional
T3 sequence (P42574 whole entry): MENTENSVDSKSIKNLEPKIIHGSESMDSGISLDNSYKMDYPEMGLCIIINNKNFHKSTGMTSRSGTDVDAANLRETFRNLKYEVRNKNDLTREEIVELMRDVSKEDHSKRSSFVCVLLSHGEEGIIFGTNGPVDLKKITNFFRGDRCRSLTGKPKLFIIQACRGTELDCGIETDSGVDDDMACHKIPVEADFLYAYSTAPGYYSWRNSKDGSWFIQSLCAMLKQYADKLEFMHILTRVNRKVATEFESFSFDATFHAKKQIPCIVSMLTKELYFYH

[7] = target: Caspase-8 (Homo sapiens, UniProt Q14790); assay: caspase-8 inhibition counter-screen, dose response, selectivity assay for caspase-6 inhibitor project, biochemical, Z-IETD-R110 fluorescence, cherry-picked samples (AID 743294)
Sequence of Caspase-8 (Q14790 217-374 limits assumed): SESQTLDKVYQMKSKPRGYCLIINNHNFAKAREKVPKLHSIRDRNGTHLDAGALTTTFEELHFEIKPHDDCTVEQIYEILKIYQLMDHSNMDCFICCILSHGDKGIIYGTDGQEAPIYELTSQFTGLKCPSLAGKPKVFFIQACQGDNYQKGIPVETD
Sequence of Caspase-8 (Q14790 385-479 limits assumed): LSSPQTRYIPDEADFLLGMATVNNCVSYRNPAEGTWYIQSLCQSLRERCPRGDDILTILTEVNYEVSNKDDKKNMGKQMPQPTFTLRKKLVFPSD

[8] = target: T4, Sentrin-specific protease 8 (Homo sapiens, UniProt Q96LD8); format: functional
T4 sequence (Q96LD8 whole entry): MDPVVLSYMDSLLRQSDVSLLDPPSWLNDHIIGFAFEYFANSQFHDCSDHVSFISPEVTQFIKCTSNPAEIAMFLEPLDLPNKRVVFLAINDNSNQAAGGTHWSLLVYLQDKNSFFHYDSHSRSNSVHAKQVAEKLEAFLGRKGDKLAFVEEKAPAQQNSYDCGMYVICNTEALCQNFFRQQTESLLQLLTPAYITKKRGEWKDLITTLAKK

[9] = target: T5, Caspase-6 (Homo sapiens, UniProt P55212); assay: human caspase-6 inhibitors, dose response, biochemical, VEID-R110 fluorescence, cherry-pick (AID 720632)
T5 sequence (P55212 whole entry): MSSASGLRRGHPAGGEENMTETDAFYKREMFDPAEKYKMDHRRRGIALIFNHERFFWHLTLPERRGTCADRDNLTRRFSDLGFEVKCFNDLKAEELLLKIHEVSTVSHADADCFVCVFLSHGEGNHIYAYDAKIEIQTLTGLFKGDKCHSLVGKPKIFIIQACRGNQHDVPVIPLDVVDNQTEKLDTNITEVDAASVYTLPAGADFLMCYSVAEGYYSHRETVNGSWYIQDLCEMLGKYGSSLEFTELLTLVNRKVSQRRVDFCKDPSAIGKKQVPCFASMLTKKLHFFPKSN

[10] = target: T3, Caspase-3; assay: caspase-3 enzyme inhibitors, selectivity check, dose response, selectivity assay for caspase-6 allosteric inhibitor project, biochemical, fluorescence, cherry-picked samples (AID 743291)
[11] = target: T6, Caspase-9 (Homo sapiens, UniProt P55211); assay: caspase-9 enzyme inhibition, dose response, selectivity assay for caspase-6 inhibitor project, biochemical, fluorescence, plate reader, cherry-picked samples (AID 743293)
T6 sequence (P55211 whole entry): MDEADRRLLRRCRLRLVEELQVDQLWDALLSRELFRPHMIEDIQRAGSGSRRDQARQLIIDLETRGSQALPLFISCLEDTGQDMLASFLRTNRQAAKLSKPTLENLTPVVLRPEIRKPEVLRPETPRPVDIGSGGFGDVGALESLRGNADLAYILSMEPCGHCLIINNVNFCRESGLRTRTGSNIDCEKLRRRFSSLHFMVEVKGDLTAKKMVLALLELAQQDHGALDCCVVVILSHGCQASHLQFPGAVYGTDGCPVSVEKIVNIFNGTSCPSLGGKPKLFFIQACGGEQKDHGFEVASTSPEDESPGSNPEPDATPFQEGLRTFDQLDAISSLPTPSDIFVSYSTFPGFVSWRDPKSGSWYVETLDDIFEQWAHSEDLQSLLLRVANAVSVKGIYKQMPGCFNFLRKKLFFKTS

[12] = target: T4, Sentrin-specific protease 8; format: functional; remark: listed apart in the source
[13] = target: Caspase-7 (Homo sapiens, UniProt P55210); assay: human caspase-7 inhibitors, dose response, selectivity assay for caspase-6 inhibitor project, biochemical, DEVD-R110 fluorescence, cherry-pick (AID 743295)
Sequence of Caspase-7 (P55210 24-198 limits assumed): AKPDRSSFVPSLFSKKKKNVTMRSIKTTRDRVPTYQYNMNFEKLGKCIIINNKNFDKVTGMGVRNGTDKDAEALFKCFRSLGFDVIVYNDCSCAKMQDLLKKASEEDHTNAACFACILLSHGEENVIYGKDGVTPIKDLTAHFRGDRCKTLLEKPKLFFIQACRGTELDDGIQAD
Sequence of Caspase-7 (P55210 207-303 limits assumed): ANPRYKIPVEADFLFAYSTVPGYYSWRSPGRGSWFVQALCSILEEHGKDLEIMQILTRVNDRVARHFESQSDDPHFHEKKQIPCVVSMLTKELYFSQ

[14] = target: Hepatocyte nuclear factor 4-alpha (Homo sapiens, UniProt P41235); format: functional, cell-based;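 also: biochemical luminescence-based dose-response counterscreen measuring inhibition of HNF4 dimerization, run alongside a screen for blockers of ABHD5–perilipin-5 interaction; split luciferase complementation of HNF4 fusion proteins in cell lysate measuring dimerization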
Sequence of Hepatocyte nuclear factor 4-alpha (P41235 whole entry, the tested form may be a part): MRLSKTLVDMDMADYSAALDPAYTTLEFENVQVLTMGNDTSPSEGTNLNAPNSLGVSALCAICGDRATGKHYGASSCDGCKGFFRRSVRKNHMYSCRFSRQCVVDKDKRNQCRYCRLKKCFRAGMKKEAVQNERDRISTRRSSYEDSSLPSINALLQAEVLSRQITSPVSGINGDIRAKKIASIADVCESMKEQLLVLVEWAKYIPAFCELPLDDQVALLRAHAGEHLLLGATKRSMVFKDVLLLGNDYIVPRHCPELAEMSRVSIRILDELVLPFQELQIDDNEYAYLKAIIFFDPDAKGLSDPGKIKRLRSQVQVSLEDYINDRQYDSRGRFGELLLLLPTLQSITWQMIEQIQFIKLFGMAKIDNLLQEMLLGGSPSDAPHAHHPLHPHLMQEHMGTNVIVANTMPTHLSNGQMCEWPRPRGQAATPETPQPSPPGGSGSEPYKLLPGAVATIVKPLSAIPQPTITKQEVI

[15] = target: Mitochondrial peptide methionine sulfoxide reductase (Bos taurus, UniProt P54149); format: functional;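 also: absorbance read-out, biochemical high-throughput dose-response screen for MsrA inhibitors, confirmatory; recombinant bovine MsrA coupled to E. coli TrxB with NADPH and selenocystamine; potency is for inhibitors of MsrA activity on DMSO substrate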
[16] = target: DNA (cytosine-5)-methyltransferase 1 (Homo sapiens, UniProt P26358); assay: DNMT1 methyltransferase inhibitors, confirmation, biochemical, fluorescent molecular beacon (AID 602386); format: functional
Sequence of DNA (cytosine-5)-methyltransferase 1 (P26358 whole entry): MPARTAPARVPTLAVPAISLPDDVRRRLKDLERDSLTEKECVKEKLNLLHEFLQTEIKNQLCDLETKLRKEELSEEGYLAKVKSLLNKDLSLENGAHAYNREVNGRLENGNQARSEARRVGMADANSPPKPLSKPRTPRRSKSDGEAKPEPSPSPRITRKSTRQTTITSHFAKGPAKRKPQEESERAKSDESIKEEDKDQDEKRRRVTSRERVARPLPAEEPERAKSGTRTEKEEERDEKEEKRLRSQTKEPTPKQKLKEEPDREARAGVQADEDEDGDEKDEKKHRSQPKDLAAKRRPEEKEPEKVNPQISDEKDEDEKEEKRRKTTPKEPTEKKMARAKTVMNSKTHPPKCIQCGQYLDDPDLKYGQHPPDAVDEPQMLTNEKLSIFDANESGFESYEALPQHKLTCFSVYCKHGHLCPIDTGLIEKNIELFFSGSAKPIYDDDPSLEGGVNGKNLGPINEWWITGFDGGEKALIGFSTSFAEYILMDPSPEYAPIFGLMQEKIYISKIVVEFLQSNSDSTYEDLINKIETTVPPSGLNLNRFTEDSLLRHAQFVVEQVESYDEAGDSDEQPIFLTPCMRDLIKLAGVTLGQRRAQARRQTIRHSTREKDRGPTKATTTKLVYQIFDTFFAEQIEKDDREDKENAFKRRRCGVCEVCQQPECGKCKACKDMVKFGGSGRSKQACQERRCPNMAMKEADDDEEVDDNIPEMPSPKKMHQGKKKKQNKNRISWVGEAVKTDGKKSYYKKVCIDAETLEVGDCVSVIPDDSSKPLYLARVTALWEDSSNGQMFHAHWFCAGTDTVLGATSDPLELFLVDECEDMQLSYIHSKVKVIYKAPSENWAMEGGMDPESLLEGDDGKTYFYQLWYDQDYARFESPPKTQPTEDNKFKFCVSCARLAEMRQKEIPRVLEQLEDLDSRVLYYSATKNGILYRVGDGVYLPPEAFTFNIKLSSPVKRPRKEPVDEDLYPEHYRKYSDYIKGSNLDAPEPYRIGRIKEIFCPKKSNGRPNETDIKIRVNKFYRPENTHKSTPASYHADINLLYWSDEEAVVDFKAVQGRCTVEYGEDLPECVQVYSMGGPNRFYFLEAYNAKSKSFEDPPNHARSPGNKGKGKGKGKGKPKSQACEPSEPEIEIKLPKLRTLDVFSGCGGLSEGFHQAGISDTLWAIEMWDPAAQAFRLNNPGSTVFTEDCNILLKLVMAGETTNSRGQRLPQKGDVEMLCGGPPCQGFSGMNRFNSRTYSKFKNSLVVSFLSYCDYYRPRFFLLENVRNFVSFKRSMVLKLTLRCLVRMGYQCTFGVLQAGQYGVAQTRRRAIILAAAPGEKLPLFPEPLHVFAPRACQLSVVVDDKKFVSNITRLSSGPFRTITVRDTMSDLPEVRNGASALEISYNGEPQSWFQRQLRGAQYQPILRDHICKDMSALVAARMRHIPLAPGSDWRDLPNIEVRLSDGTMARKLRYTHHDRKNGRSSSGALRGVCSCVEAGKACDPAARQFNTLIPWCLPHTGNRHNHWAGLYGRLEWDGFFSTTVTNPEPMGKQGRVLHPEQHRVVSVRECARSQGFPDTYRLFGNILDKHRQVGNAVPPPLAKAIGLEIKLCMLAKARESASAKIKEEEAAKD

[17] = target: T7, Rac GTPase-activating protein 1 (Homo sapiens, UniProt Q9H0H5); assay: MgcRacGAP GTPase-activating activity inhibitors, confirmation, biochemical, ADP Hunter fluorescence, primary and confirmatory (AID 624330); format: functional
T7 sequence (Q9H0H5 whole entry): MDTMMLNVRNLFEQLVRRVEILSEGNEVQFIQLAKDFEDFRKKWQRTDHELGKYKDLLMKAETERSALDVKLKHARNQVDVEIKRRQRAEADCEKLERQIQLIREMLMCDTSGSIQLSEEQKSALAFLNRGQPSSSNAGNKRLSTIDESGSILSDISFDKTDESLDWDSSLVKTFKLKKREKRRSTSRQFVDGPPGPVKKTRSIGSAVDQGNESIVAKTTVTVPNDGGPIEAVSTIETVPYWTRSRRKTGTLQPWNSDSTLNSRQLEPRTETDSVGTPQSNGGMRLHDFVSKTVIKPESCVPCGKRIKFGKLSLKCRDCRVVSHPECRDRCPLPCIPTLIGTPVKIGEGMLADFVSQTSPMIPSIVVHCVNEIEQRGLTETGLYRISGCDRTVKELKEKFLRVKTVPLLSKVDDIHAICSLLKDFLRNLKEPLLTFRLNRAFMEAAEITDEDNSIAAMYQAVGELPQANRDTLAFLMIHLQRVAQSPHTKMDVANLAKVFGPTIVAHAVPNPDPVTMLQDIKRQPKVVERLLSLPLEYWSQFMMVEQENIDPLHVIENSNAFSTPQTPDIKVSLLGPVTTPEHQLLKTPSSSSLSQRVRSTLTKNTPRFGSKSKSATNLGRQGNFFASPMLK

[18] = HeLa cell cytotoxicity, dose response, cytotoxicity control for MgcRacGAP inhibitor project (AID 624300); format: functional

Sequence of ATP-dependent translocase ABCB1 (P08183 whole entry, the tested form may be a part): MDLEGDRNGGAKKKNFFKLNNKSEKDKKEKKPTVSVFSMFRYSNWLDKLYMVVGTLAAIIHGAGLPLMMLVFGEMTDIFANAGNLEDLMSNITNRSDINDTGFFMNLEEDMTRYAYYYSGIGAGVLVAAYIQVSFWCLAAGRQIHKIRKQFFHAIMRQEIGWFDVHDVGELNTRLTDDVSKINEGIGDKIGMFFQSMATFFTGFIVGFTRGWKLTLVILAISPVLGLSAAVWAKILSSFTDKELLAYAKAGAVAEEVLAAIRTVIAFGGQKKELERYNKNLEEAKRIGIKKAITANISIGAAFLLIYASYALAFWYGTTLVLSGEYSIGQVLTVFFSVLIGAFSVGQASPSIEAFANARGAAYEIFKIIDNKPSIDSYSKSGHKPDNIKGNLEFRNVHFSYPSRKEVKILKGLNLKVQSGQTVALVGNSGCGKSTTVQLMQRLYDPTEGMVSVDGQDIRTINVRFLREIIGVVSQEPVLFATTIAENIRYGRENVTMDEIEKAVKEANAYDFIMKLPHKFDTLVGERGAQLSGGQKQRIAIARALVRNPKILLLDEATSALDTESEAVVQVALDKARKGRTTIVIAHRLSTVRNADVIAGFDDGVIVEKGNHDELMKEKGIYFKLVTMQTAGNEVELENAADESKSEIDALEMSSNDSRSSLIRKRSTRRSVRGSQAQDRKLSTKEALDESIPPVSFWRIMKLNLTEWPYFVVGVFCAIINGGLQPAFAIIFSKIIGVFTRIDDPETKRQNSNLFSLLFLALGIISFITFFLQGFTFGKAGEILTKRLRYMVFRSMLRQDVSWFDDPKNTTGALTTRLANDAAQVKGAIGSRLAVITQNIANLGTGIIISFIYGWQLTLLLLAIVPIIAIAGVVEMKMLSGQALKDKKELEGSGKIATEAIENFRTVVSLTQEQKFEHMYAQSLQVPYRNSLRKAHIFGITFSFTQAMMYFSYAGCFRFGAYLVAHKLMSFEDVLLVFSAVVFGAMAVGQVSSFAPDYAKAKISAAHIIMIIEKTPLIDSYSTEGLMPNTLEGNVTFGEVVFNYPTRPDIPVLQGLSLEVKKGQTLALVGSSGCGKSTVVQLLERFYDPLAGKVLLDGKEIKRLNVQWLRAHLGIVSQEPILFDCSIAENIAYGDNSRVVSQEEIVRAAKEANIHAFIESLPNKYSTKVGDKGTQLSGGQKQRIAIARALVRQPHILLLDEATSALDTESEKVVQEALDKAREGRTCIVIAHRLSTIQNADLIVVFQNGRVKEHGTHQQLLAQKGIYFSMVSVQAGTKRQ

EC50 [1]: 23.9 µM (inactive)
SMILES: CCCCn1c(O)c(/N=N/c2ccccn2)c2ccccc21

IC50 [2]: 8.47 µM (active)
IC50 [3]: 9.87 µM (active)
SMILES: N#Cc1ccc(-c2nc3ccc(Cl)cn3c2Cc2ccccc2C(F)(F)F)cc1

IC50 [4]: 34.3 µM (inactive)
IC50 [5]: 3.55 µM (active)
SMILES: O=C(N/N=C/c1sc(=O)n(Cc2ccc(Br)cc2)c1Cl)c1ccco1

IC50 [6]: 8.35 µM (active)
AC50 [7]: 31.8 µM (active)
AC50 [9]: 1.58 µM (active)
AC50 [10]: 3.87 µM (active)
AC50 [11]: 46.5 µM (active)
AC50 [13]: 4.66 µM (active)
SMILES: CC[C@H](CO)Oc1cc(NCc2cccc(N)c2)c2ncn(C(C)C)c2c1
IC50 [8]: 1.65 µM (active)
IC50 [12]: 1.87 µM (active)

IC50 [14]: 2.56 µM (active)
SMILES: Cc1cccc(C)c1NC(=O)C(c1cccc2ccccc12)n1c(=O)c(-c2ccco2)nc2ccccc21 (stereo not drawn)

IC50 [15]: 134 µM (inactive)
SMILES: Cc1ccc(C(=O)N/N=C/C=C/c2ccccc2)o1

SMILES: c1ccc2c(c1)c1c(c3ccccc32)CN2CCCC2C1 (stereo not drawn)
IC50 [16]: > 99 µM (inactive)
IC50 [17]: 111 µM (active)
CC50 [18]: 100 µM (active)
